In patent publication US6900019B1, “In-situ cell extraction and assay method” (Amersham Biosciences UK Limited, priority 1997, dated 2005):
“And” between values parts separate entries of the source, which are not always exact repeats. Identical values can stand only once.

Legend:
[1] = tested on: rabbit anti-cAMP sera (antigen:antibody binding); assay: Scintillation proximity radioimmunoassay for cAMP: standard curves with lysis reagents and sequestrants
Procedure: All assays were carried out in microtitre plates compatible with a microtitre plate beta scintillation counter. Standards (50 μl; 0.2-12.8 pmol/well), antisera (50 μl; at 1:11000 dilution), tracer (50 ul; 10000-20000 cpm) are added to anti-rabbit coated SPA beads (50 μl; 20 mg/ml). Non-specific binding was determined in the absence of specific rabbit antisera. SPA anti-rabbit reagent is placed onto a magnetic stirrer to ensure a homogeneous suspension before pipetting. All wells contained a total volume of 200 μl. The plates were sealed and incubated at room temperature (15-30° C.) for 15-20 hours. The amount of [^125I]cAMP bound to the SPA fluomicrospheres was determined by counting in a microtitre plate beta scintillation counter for 2 minutes.
Experiments were set up with:— • a) Working standards (4-256 pmol/ml; 0.2-12.8 pmol/well) were prepared in assay buffer (0.05M sodium acetate buffer containing 0.01% sodium azide) only (control) or assay buffer containing lysis reagent (e.g. DTAB, CPC or SDS; see experiment 1) at various concentrations. • b) Rabbit anti-cAMP sera prepared in assay buffer only (control) or assay buffer containing sequestrating agent at various concentrations depending on the experiment. • c) Radioactive tracer: adenosine 3′ 5′-cyclic phosphoric acid 2′-O-succinyl-3-[^125I] iodotyrosine methyl ester prepared in assay buffer only (control) or assay buffer containing sequestrating agent at various concentrations depending on the experiment. • d) Donkey anti-rabbit IgG coupled to scintillation proximity fluomicrospheres prepared in assay buffer only (control) or assay buffer containing sequestrating agent at various concentrations depending on the experiment. Experiment 1: Inhibition of Antigen and Antibody Binding by Several Lysis Reagents Method
In these experiments, standard curves were prepared for cAMP using the SPA immunoassay technique, described above, where working standards of cAMP were prepared in several lysis reagents at 1% (w/v) or 2% (w/v) final concentration. The detergents investigated included dodecyl trimethyl ammonium bromide (DTAB; Sigma Chemical Co. D8638), benzethonium chloride (BZC; Aldrich; B470-8), cetyl pyridinium chloride (CPC; Sigma Chemical Co; C9002), sodium dodecyl sulphate (SDS, Sigma chemical Co; L4509) and N-dodecyl-N,N-dimethyl-3-ammonio-1-propanesulphonate (DDAPS; Sigma Chemical Co.; D4516).
In these experiments, standard curves for cAMP were prepared using the SPA immunoassay technique described above, where working standards of cAMP were prepared in 1% (w/v), 1.5% (w/v) or 2% (w/v) lysis reagents (DTAB, SDS or CPC). The control consisted of no lysis reagent or cyclodextrin added. The effect including 2.5% (w/v) alpha-cyclodextrin (alpha-CD) (Sigma Chemical Co.; C4642) on antigen:antibody binding was investigated. Here, tracer, antisera and SPA beads were prepared in assay buffer containing 2.5% (w/v) alpha-CD. A second control tested the effect of 2.5% (w/v) alpha-CD on the standard curve without addition of lysis reagent.
In this experiment, standard curves for cAMP were prepared using the SPA radioimmunoassay where working standards of cAMP were prepared in 1% (w/v) DTAB. The effect of including 1% (w/v), 2% (w/v), 2.5% (w/v) and 5% (w/v) alpha-cyclodextrin on antigen:antibody binding was investigated. Here, tracer, antisera and SPA beads were prepared in assay buffer containing alpha-CD at the above concentrations. The control consisted of no lysis or cyclodextrin added to the assay.
In this experiment, standard curves for cAMP were prepared using the SPA immunoassay technique where working standards were prepared 1% (wt) lysis reagent (DTAB). The effect of including 2.5% (w/v) alpha-cyclodextrin (CD) 2.5% (w/v) beta-cyclodextrin (beta-CD) (Sigma is Chemical Co.; C4767) and 2.5% (w/v) gamma-cyclodextrin (gamma-CD) (Sigma Chemical Co.; 4892) on antigen:antibody binding was investigated. […]

[2] = tested on: binding protein prepared from bovine adrenal cortex; assay: Radioreceptor binding assay for D-myo-inositol 1,4,5-trisphosphate (IP3) with lysis reagent and sequestrant; conditions: 0.5% w/v DTAB in standards
Procedure: Bovine adrenal glands were removed from animals and stored at −20° C. before preparing the binding protein. The cortex was dissected from the adrenal glands, homogenised in NaHCO3 (20 mM) with dithiothreitol (1 mM), and the homogenate centrifuged at 5000 g for 15 minutes. The supernatant was centrifuged at 35000 g for 20 minutes, the resulting pellet resuspended in the homogenisation buffer and centrifuged again at 35000 g for 20 minutes. The final pellet was resuspended in homogenisaton buffer at a protein concentration of between 20-40 mg/ml.
For the assay, aliquots (100 μl) of the bovine adrenal cortex microsome preparation were incubated in 100 μl of 0.1M Tris buffer (pH9.0), containing 4 mM EDTA and 4 mg/ml bovine serum albumin. Incubations were carried out for 15 minutes in a final volume of 0.4 ml with [^3H] inositol 1,4,5-trisphosphate (100 μl; 6000 cpm) sample or standard (100 μl; 0.19-25 pmol inositol 1,4,5-trisphosphate/assay tube). Non-specific binding was determined in the presence of 1 nmol inositol 1,4,5-trisphosphate/tube. Incubations were terminated by centrifugation (12000 g) (10 minutes at 4° C.) and removal of the supernatant by gentle decantation. Particulate bound radioactivity was analysed, after suspension in 0.15M sodium hydroxide followed by neutralisation with 10% acetic acid, by liquid scintillation counting […]

OC[C@H]1O[C@@H]2O[C@H]3[C@H](O)[C@@H](O)[C@@H](O[C@H]4[C@H](O)[C@@H](O)[C@@H](O[C@H]5[C@H](O)[C@@H](O)[C@@H](O[C@H]6[C@H](O)[C@@H](O)[C@@H](O[C@H]7[C@H](O)[C@@H](O)[C@@H](O[C@H]1[C@H](O)[C@H]2O)O[C@@H]7CO)O[C@@H]6CO)O[C@@H]5CO)O[C@@H]4CO)O[C@@H]3CO [CD, alpha-cyclodextrin]
restoration of antigen:antibody binding ([1]; 1% (w/v) and 2% (w/v) alpha-CD, standards in 1% DTAB): restored binding to a limited degree | restoration of antigen:antibody binding ([1]; 2.5% (w/v) alpha-CD, standards in 1% DTAB): optimal results | restoration of antigen:antibody binding by different sequestrants ([1]; 2.5% (w/v) sequestrant, standards in 1% DTAB): restored binding to an optimal degree | effect on the cAMP standard curve ([1]; 2.5% alpha-CD only, no lysis reagent): little impact | [125I]cAMP bound to SPA beads, counts per minute ([1]; 2.5% alpha-cyclodextrin only, no lysis reagent, 0.2 pmol cAMP/well): 2790 cpm | [125I]cAMP bound to SPA beads, counts per minute ([1]; 2.5% alpha-cyclodextrin only, no lysis reagent, 0.2 pmol cAMP/well, listed as cyclodextrin): 2358 cpm | [125I]cAMP bound to SPA beads, counts per minute ([1]; 2.5% alpha-cyclodextrin only, no lysis reagent, 0.4 pmol cAMP/well): 2485 cpm | [125I]cAMP bound to SPA beads, counts per minute ([1]; 2.5% alpha-cyclodextrin only, no lysis reagent, 0.4 pmol cAMP/well, listed as cyclodextrin): 1979 cpm | [125I]cAMP bound to SPA beads, counts per minute ([1]; 2.5% alpha-cyclodextrin only, no lysis reagent, 0.8 pmol cAMP/well): 1979 cpm | [125I]cAMP bound to SPA beads, counts per minute ([1]; 2.5% alpha-cyclodextrin only, no lysis reagent, 0.8 pmol cAMP/well, listed as cyclodextrin): 1682 cpm | [125I]cAMP bound to SPA beads, counts per minute ([1]; 2.5% alpha-cyclodextrin only, no lysis reagent, 1.6 pmol cAMP/well): 1503 cpm | [125I]cAMP bound to SPA beads, counts per minute ([1]; 2.5% alpha-cyclodextrin only, no lysis reagent, 1.6 pmol cAMP/well, listed as cyclodextrin): 1499 cpm | [125I]cAMP bound to SPA beads, counts per minute ([1]; 2.5% alpha-cyclodextrin only, no lysis reagent, 3.2 pmol cAMP/well): 1058 cpm | [125I]cAMP bound to SPA beads, counts per minute ([1]; 2.5% alpha-cyclodextrin only, no lysis reagent, 3.2 pmol cAMP/well, listed as cyclodextrin): 1143 cpm | [125I]cAMP bound to SPA beads, counts per minute ([1]; 2.5% alpha-cyclodextrin only, no lysis reagent, 6.4 pmol cAMP/well): 674 cpm | [125I]cAMP bound to SPA beads, counts per minute ([1]; 2.5% alpha-cyclodextrin only, no lysis reagent, 6.4 pmol cAMP/well, listed as cyclodextrin): 754 cpm | [125I]cAMP bound to SPA beads, counts per minute ([1]; 2.5% alpha-cyclodextrin only, no lysis reagent, 12.8 pmol cAMP/well): 415 cpm | [125I]cAMP bound to SPA beads, counts per minute ([1]; 2.5% alpha-cyclodextrin only, no lysis reagent, 12.8 pmol cAMP/well, listed as cyclodextrin): 383 cpm | [125I]cAMP bound to SPA beads, counts per minute ([1]; 2.5% alpha-cyclodextrin only, no lysis reagent, NSB (no specific antisera)): 155 cpm | [125I]cAMP bound to SPA beads, counts per minute ([1]; 2.5% alpha-cyclodextrin only, no lysis reagent, NSB (no specific antisera), listed as cyclodextrin): 199 cpm | [125I]cAMP bound to SPA beads, counts per minute ([1]; 2.5% alpha-cyclodextrin only, no lysis reagent, Zero standard): 3300 cpm | [125I]cAMP bound to SPA beads, counts per minute ([1]; 2.5% alpha-cyclodextrin only, no lysis reagent, Zero standard, listed as cyclodextrin): 3145 cpm | restoration of antigen:antibody binding ([1]; 5% (w/v) alpha-CD, standards in 1% DTAB): inhibitory | binding of [3H]IP3 to the receptor preparation ([2]; alpha-cyclodextrin 2% final w/v in tracer and adrenal cortex preparation): Binding was restored

CCCCCCCCCCCC[N+](C)(C)C.[Br-] [DTAB, dodecyl trimethyl ammonium bromide]
[125I]cAMP bound to SPA beads, counts per minute ([1]; 1% lysis reagent, no sequestrant, 0.2 pmol cAMP/well): 1118 cpm and 1575 cpm | [125I]cAMP bound to SPA beads, counts per minute ([1]; 1% lysis reagent, no sequestrant, 0.4 pmol cAMP/well): 1098 cpm and 1573 cpm | [125I]cAMP bound to SPA beads, counts per minute ([1]; 1% lysis reagent, no sequestrant, 0.8 pmol cAMP/well): 1088 cpm and 1305 cpm | [125I]cAMP bound to SPA beads, counts per minute ([1]; 1% lysis reagent, no sequestrant, 1.6 pmol cAMP/well): 977 cpm and 1097 cpm | [125I]cAMP bound to SPA beads, counts per minute ([1]; 1% lysis reagent, no sequestrant, 3.2 pmol cAMP/well): 860 cpm and 813 cpm | [125I]cAMP bound to SPA beads, counts per minute ([1]; 1% lysis reagent, no sequestrant, 6.4 pmol cAMP/well): 649 cpm and 619 cpm | [125I]cAMP bound to SPA beads, counts per minute ([1]; 1% lysis reagent, no sequestrant, 12.8 pmol cAMP/well): 440 cpm and 439 cpm | [125I]cAMP bound to SPA beads, counts per minute ([1]; 1% lysis reagent, no sequestrant, NSB (no specific antisera)): 130 cpm and 182 cpm | [125I]cAMP bound to SPA beads, counts per minute ([1]; 1% lysis reagent, no sequestrant, Zero standard): 1429 cpm and 1586 cpm | [125I]cAMP bound to SPA beads, counts per minute ([1]; 1.5% lysis reagent only, 0.2 pmol cAMP/well): 799 cpm | [125I]cAMP bound to SPA beads, counts per minute ([1]; 1.5% lysis reagent only, 0.4 pmol cAMP/well): 713 cpm | [125I]cAMP bound to SPA beads, counts per minute ([1]; 1.5% lysis reagent only, 0.8 pmol cAMP/well): 688 cpm | [125I]cAMP bound to SPA beads, counts per minute ([1]; 1.5% lysis reagent only, 1.6 pmol cAMP/well): 513 cpm | [125I]cAMP bound to SPA beads, counts per minute ([1]; 1.5% lysis reagent only, 3.2 pmol cAMP/well): 426 cpm | [125I]cAMP bound to SPA beads, counts per minute ([1]; 1.5% lysis reagent only, 6.4 pmol cAMP/well): 376 cpm | [125I]cAMP bound to SPA beads, counts per minute ([1]; 1.5% lysis reagent only, 12.8 pmol cAMP/well): 264 cpm | [125I]cAMP bound to SPA beads, counts per minute ([1]; 1.5% lysis reagent only, NSB (no specific antisera)): 237 cpm | [125I]cAMP bound to SPA beads, counts per minute ([1]; 1.5% lysis reagent only, Zero standard): 819 cpm | [125I]cAMP bound to SPA beads, counts per minute ([1]; 2% lysis reagent, no sequestrant, 0.2 pmol cAMP/well): 231 cpm and 198 cpm | [125I]cAMP bound to SPA beads, counts per minute ([1]; 2% lysis reagent, no sequestrant, 0.4 pmol cAMP/well): 231 cpm and 216 cpm | [125I]cAMP bound to SPA beads, counts per minute ([1]; 2% lysis reagent, no sequestrant, 0.8 pmol cAMP/well): 201 cpm | [125I]cAMP bound to SPA beads, counts per minute ([1]; 2% lysis reagent, no sequestrant, 1.6 pmol cAMP/well): 195 cpm and 179 cpm | [125I]cAMP bound to SPA beads, counts per minute ([1]; 2% lysis reagent, no sequestrant, 3.2 pmol cAMP/well): 179 cpm and 176 cpm | [125I]cAMP bound to SPA beads, counts per minute ([1]; 2% lysis reagent, no sequestrant, 6.4 pmol cAMP/well): 170 cpm and 144 cpm | [125I]cAMP bound to SPA beads, counts per minute ([1]; 2% lysis reagent, no sequestrant, 12.8 pmol cAMP/well): 93 cpm and 78 cpm | [125I]cAMP bound to SPA beads, counts per minute ([1]; 2% lysis reagent, no sequestrant, NSB (no specific antisera)): 145 cpm and 138 cpm | [125I]cAMP bound to SPA beads, counts per minute ([1]; 2% lysis reagent, no sequestrant, Zero standard): 272 cpm and 217 cpm | binding of [3H]IP3 to the receptor preparation ([2]; no sequestrant): total inhibition of binding
